The values below come from patent US20170044208A1, “SELECTIVE GLUCOCORTICOID RECEPTOR LIGANDS” (The University of Manchester, priority 2013, published 2017).

Where two headings read alike, the source gives them in different places.

Assay [1] addresses T1, Glucocorticoid Receptor (GR) (Homo sapiens, UniProt P04150).
T1 construct: Cells were transfected the next day with MMTV-Luc (5 μg) and pGL4-hRLuc (0.1 μg); endogenous in cells; host or cells: HeLa
T1 sequence (P04150 1-777): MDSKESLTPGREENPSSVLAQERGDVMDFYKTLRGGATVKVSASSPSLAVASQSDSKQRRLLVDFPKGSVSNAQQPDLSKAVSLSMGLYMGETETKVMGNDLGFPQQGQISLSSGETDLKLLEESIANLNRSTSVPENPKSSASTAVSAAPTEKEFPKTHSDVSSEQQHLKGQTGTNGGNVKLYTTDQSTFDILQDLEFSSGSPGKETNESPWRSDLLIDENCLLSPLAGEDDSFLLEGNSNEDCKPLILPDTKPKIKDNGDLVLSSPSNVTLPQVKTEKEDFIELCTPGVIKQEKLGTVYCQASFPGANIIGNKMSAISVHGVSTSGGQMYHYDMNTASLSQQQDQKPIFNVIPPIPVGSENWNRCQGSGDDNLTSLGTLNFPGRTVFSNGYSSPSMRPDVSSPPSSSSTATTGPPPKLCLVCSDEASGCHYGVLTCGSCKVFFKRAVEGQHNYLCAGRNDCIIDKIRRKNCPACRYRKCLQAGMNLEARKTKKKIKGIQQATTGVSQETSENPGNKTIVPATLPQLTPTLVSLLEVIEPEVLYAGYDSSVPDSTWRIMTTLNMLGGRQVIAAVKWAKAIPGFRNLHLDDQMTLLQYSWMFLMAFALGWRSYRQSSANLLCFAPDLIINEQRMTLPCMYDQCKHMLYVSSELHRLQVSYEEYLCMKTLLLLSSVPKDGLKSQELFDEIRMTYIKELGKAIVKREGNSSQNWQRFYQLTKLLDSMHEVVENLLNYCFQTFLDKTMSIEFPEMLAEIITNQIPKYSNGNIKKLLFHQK
The assay can be described thus: Transactivation assay (MMTV-Luc reporter in HeLa cells). Format: cell-based. The settings on record: for Emax / EC50: HeLa; for Emax: 16 h, read-out: TA Max %; for EC50: concentration for half-maximal transactivation, MMTV-Luc, 16 hours, mean, read-out: TA EC50; for TA %: comparison table, against maximal activation seen with dexamethasone. How it is done: HeLa cells were seeded at 80×10^4 cells/dish in 100 mm dishes. Cells were transfected the next day with MMTV-Luc (5 μg) and pGL4-hRLuc (0.1 μg), in 250 μL of Opti-MEM I using FuGENE HD (15 μL). After 24 hours, cells were trypsinized and seeded into 96-well plates at a density of 8-10×10^4 cells/mL.
Following overnight incubation to allow attachment, cells were treated with the required concentration of compounds, then further incubated for 16 hours. Media was aspirated and cells lysed in 40 μL of 1×PLB.
(§1) Firefly and Renilla luciferase activity was measured using the Dual Luciferase Reporter system following the manufacturer's protocol.
(§2) IC50 and EC50 values were calculated by using GraphPad Prism 5.0. Briefly, luminescence values for luciferase were normalised using the Renilla luminescence values. The normalised values were input into GraphPad Prism 5.0. Non-linear regression analysis was carried out using the “log(concentration) vs. response” equation of the software, with a Hill slope coefficient fixed at 1.
(§3) IC50 and EC50 values are mean values in nM of all IC50/EC50 values for the compound. Max % values are mean values of the Max% activity.

Assay [2] concerns NFkB. In words: Transrepression assay (NFκB-LUC reporter in HeLa cells, TNF stimulated). Format: cell-based. The settings on record: for Emax / IC50: Homo sapiens, HeLa; for Emax: 16 h, read-out: TR Max %; for TR %: maximal NFkB repression compared to Dexamethasone. How it is done:
HeLa cells were seeded at 80×10^4 cells/dish in 100 mm dishes. Cells were transfected the next day with NFκB-LUC reporter (5 μg) and pGL4-hRLuc (0.1 μg), in 0.25 mL of Opti-MEM I using FuGENE HD (15 μL). After 24 hours, cells were trypsinized and seeded in to 24-well plates at a density of 8-10×10^4 cells/mL. Following overnight incubation, cells were starved for a further 24 hours in DMEM.
On the day of the experiment, compounds were added to cells one hour prior to the addition of […] (0.5 ng/mL). After a further 16 hours, cells were washed twice with ice-cold PBS, then lysed with 100 μL of 1×PLB.
as §1, §2, §3

Setting [3] is: concentration for half-maximal repression of NFkB, TNF 0.5 ng/mL, 16 hours, mean, read-out: TR IC50.
Setting [4] is: comparison table, half-maximal repression of NFkB, multiple experiments, read-out: IC50.

As a reminder, the EC50 is the concentration that produces a half-maximal response. As usually defined, the IC50 is the concentration that gives 50% inhibition. For `C[C@@H]1C[C@H]2[C@@H]3CCC4=CC(=O)C=C[C@]4(C)[C@@]3(F)[C@@H](O)C[C@]2(C)[C@@]1(O)c1csc(NC(=O)c2cnco2)n1` [Compound 41], in assay [1], the Emax is 1.27% and the EC50 came out at 10300 nM. Further, in assay [2], the Emax came out at 26%. For the same compound, the half-maximal inhibitory concentration (IC50) in assay [2] (setting [3]) was 41.8 nM.

`C[C@@H]1C[C@H]2[C@@H]3CCC4=CC(=O)C=C[C@]4(C)[C@@]3(F)[C@@H](O)C[C@]2(C)[C@@]1(O)c1csc(NC(=O)c2cccc(F)c2)n1` [Compound 26]: in assay [1], the Emax was determined as 3.9% and the EC50 is 1530 nM. In addition, the Emax in assay [2] was found to be 44.1%. The IC50 in assay [2] (setting [3]) turned out to be 8.22 nM.

Turning to `COC(=O)c1ccc(OCCCNC(=O)[C@@]2(O)[C@H](C)C[C@H]3[C@@H]4CCC5=CC(=O)C=C[C@]5(C)[C@@]4(F)[C@@H](O)C[C@@]32C)cc1` [Compound 17], in assay [1], the Emax worked out at 39.1%, the TA % is 39% and the EC50 is 832 nM. Also, the Emax in assay [2] worked out at 82.3%. The IC50 in assay [2] (setting [4]) amounted to 1.19 nM. For the same compound, the IC50 in assay [2] (setting [3]) is 1.19 nM. The TR % in assay [2] (comparison table) came out at 87%.

In turn, `C[C@@H]1C[C@H]2[C@@H]3CCC4=CC(=O)C=C[C@]4(C)[C@@]3(F)[C@@H](O)C[C@]2(C)[C@@]1(O)C(=O)CO` [Dex, dexamethasone, reference compound] yielded a TA % in assay [1] of 100%. In addition, in assay [2] (setting [4]), the IC50 worked out at 2.86 nM. The TR % in assay [2] (comparison table) was determined as 100%.

Consider `C[C@@H]1C[C@H]2[C@@H]3CCC4=CC(=O)C=C[C@]4(C)[C@@]3(F)[C@@H](O)C[C@]2(C)[C@@]1(O)c1csc(NC(=O)c2cncs2)n1` [Compound 35], for which, in assay [1], the Emax amounted to 0.23% and the half-maximal effective concentration (EC50) was determined as 4180 nM. Moreover, the Emax in assay [2] was found to be 35.9%. In assay [2] (setting [3]), the IC50 was 44.8 nM.

Consider `C[C@@H]1C[C@H]2[C@@H]3CCC4=CC(=O)C=C[C@]4(C)[C@@]3(F)[C@@H](O)C[C@]2(C)[C@@]1(O)C(=O)NCCCOc1ccc(C(=O)O)cc1` [Compound 19], for which, in assay [1], the Emax was determined as 0.84% and the EC50 was 406000 nM. Also, in assay [2], the Emax amounted to 33.3%. Also, in assay [2] (setting [3]), the IC50 amounted to 1450 nM.

Consider `C[C@@H]1C[C@H]2[C@@H]3CCC4=CC(=O)C=C[C@]4(C)[C@@]3(F)[C@@H](O)C[C@]2(C)[C@@]1(O)c1csc(NC(=O)c2ccc3ncsc3c2)n1` [Compound 39], for which, in assay [1], the Emax came out at 0.96% and the EC50 amounted to 1160 nM. Besides, the Emax in assay [2] was 19%. In assay [2] (setting [3]), the IC50 came to 8.34 nM.

Consider `C[C@@H]1C[C@H]2[C@@H]3CCC4=CC(=O)C=C[C@]4(C)[C@@]3(F)[C@@H](O)C[C@]2(C)[C@@]1(O)C(=O)NCCOc1ccccn1` [Compound 8], for which, in assay [1], the Emax amounted to 49.7% and the EC50 stood at 248 nM. Further, the Emax in assay [2] came out at 95%. Moreover, the concentration for half-maximal inhibition (IC50) in assay [2] (setting [3]) was determined as 5.69 nM.

`C[C@@H]1C[C@H]2[C@@H]3CCC4=CC(=O)C=C[C@]4(C)[C@@]3(F)[C@@H](O)C[C@]2(C)[C@@]1(O)c1csc(NC(=O)c2ccc[nH]2)n1` [Compound 37]: the values for the Emax in assay [1] and in assay [2] were 3.22% and 31.4%, respectively. Further, the EC50 in assay [1] came out at 2770 nM. For the same compound, the half-maximal inhibitory concentration (IC50) in assay [2] (setting [3]) worked out at 17.9 nM.

For `C[C@@H]1C[C@H]2[C@@H]3CCC4=CC(=O)C=C[C@]4(C)[C@@]3(F)[C@@H](O)C[C@]2(C)[C@@]1(O)C(=O)NCCOc1ccc(F)cc1` [Compound 5], in assay [1], the Emax turned out to be 27.2% and the EC50 is 321 nM. The Emax in assay [2] turned out to be 104%. Moreover, the IC50 in assay [2] (setting [3]) worked out at 8.13 nM.

For the compound `C[C@@H]1C[C@H]2[C@@H]3CCC4=CC(=O)C=C[C@]4(C)[C@@]3(F)[C@@H](O)C[C@]2(C)[C@@]1(O)C(=O)NCCCc1ccccc1O` [Compound 3], the Emax amounted to 24.1% in assay [1] and 76% in assay [2]. For the same compound, in assay [1], the EC50 turned out to be 1150 nM. The IC50 in assay [2] (setting [3]) worked out at 21.9 nM.

`C[C@@H]1C[C@H]2[C@@H]3CCC4=CC(=O)C=C[C@]4(C)[C@@]3(F)[C@@H](O)C[C@]2(C)[C@@]1(O)c1csc(NC(=O)c2ccc(F)c(F)c2)n1` [Compound 44]: in assay [1], the Emax amounted to 14.6% and the EC50 was determined as 914 nM. Also, in assay [2], the Emax was 41.8%. Further, the IC50 in assay [2] (setting [3]) was 28.6 nM.

Regarding `C[C@@H]1C[C@H]2[C@@H]3CCC4=CC(=O)C=C[C@]4(C)[C@@]3(F)[C@@H](O)C[C@]2(C)[C@@]1(O)c1csc(NC(=O)c2ccc(F)cc2)n1` [Compound 23], in assay [1], the Emax came to 5.67%, the TA % was 6% and the EC50 is 1400 nM. Besides, the Emax in assay [2] amounted to 52.1%. Further, the IC50 in assay [2] (setting [4]) was determined as 35.8 nM. Moreover, the 50% inhibitory concentration (IC50) in assay [2] (setting [3]) came out at 35.8 nM. The compound also showed a TR % in assay [2] (comparison table) of 52%.

On to `C[C@@H]1C[C@H]2[C@@H]3CCC4=CC(=O)C=C[C@]4(C)[C@@]3(F)[C@@H](O)C[C@]2(C)[C@@]1(O)c1csc(NC(=O)Cc2ccc(F)cc2)n1` [Compound 24], for which the Emax in assay [1] amounted to 2.63%; in assay [2] it was 79%. In addition, in assay [1], the EC50 worked out at 7690 nM. In addition, the IC50 in assay [2] (setting [3]) amounted to 5.96 nM.

On to `COc1ccc(CNc2nc([C@@]3(O)[C@H](C)C[C@H]4[C@@H]5CCC6=CC(=O)C=C[C@]6(C)[C@@]5(F)[C@@H](O)C[C@@]43C)cs2)cc1` [Compound 42], for which the Emax in assay [1] was 0.56%; in assay [2] it was 51.1%. In assay [1], the EC50 was found to be 392 nM. Moreover, the concentration for half-maximal inhibition (IC50) in assay [2] (setting [3]) was found to be 199 nM.

As for `COc1ccc(OCCNC(=O)[C@@]2(O)[C@H](C)C[C@H]3[C@@H]4CCC5=CC(=O)C=C[C@]5(C)[C@@]4(F)[C@@H](O)C[C@@]32C)cc1` [Compound 7], in assay [1], the Emax amounted to 44%, the TA % is reported as 44% and the 50% effective concentration (EC50) is 294 nM. The Emax in assay [2] was 97.3%. Moreover, the IC50 in assay [2] (setting [4]) is 1.22 nM. In addition, the IC50 in assay [2] (setting [3]) is 19.4 nM. Moreover, the TR % in assay [2] (comparison table) is recorded as 98%.

As to `C[C@@H]1C[C@H]2[C@@H]3CCC4=CC(=O)C=C[C@]4(C)[C@@]3(F)[C@@H](O)C[C@]2(C)[C@@]1(O)c1csc(NC(=O)c2ccccn2)n1` [Compound 40], in assay [1], the Emax is 1.34% and the EC50 turned out to be 16900 nM. Besides, the Emax in assay [2] turned out to be 19%. The IC50 in assay [2] (setting [3]) turned out to be 8.34 nM.

Take `C[C@@H]1C[C@H]2[C@@H]3CCC4=CC(=O)C=C[C@]4(C)[C@@]3(F)[C@@H](O)C[C@]2(C)[C@@]1(O)c1csc(N(C)C(=O)c2ccc(F)cc2)n1` [Compound 43]: in assay [1], the Emax came out at 1.63% and the half-maximal effective concentration (EC50) was found to be 86200 nM. Moreover, the Emax in assay [2] stood at 61%. Moreover, the IC50 in assay [2] (setting [3]) amounted to 155 nM.

For `C[C@@H]1C[C@H]2[C@@H]3CCC4=CC(=O)C=C[C@]4(C)[C@@]3(F)[C@@H](O)C[C@]2(C)[C@@]1(O)c1csc(NC(=O)CCc2ccc(F)cc2)n1` [Compound 38], in assay [1], the Emax turned out to be 2.48% and the 50% effective concentration (EC50) worked out at 24400 nM. The Emax in assay [2] amounted to 65.5%. Further, the IC50 in assay [2] (setting [3]) amounted to 31.2 nM.

For the compound `C[C@@H]1C[C@H]2[C@@H]3CCC4=CC(=O)C=C[C@]4(C)[C@@]3(F)[C@@H](O)C[C@]2(C)[C@@]1(O)C(=O)NCCOc1ccncc1` [Compound 12], the Emax in assay [1] turned out to be 23.8%; in assay [2], 91.1%. Besides, the EC50 in assay [1] was determined as 719 nM. For the same compound, the IC50 in assay [2] (setting [3]) is 40.7 nM.
